Source: patent US20190337924A1, “SUBSTITUTED HYDANTOIN AND THIOHYDANTOIN DERIVATIVES AS ANDROGEN RECEPTOR ANTAGONISTS” (Janssen Pharmaceutica NV, priority 2016, published 2019)
Where a name gives a salt, the structure may show the parent alone. Read-outs that look alike come from different tables or passages of the source.

Biological target: T1, wild-type Androgen Receptor (AR-wt) (Homo sapiens, UniProt P10275)
T1 construct: expressed in transfected cells; host or cells: LNCaP
T1 sequence (P10275 1-920): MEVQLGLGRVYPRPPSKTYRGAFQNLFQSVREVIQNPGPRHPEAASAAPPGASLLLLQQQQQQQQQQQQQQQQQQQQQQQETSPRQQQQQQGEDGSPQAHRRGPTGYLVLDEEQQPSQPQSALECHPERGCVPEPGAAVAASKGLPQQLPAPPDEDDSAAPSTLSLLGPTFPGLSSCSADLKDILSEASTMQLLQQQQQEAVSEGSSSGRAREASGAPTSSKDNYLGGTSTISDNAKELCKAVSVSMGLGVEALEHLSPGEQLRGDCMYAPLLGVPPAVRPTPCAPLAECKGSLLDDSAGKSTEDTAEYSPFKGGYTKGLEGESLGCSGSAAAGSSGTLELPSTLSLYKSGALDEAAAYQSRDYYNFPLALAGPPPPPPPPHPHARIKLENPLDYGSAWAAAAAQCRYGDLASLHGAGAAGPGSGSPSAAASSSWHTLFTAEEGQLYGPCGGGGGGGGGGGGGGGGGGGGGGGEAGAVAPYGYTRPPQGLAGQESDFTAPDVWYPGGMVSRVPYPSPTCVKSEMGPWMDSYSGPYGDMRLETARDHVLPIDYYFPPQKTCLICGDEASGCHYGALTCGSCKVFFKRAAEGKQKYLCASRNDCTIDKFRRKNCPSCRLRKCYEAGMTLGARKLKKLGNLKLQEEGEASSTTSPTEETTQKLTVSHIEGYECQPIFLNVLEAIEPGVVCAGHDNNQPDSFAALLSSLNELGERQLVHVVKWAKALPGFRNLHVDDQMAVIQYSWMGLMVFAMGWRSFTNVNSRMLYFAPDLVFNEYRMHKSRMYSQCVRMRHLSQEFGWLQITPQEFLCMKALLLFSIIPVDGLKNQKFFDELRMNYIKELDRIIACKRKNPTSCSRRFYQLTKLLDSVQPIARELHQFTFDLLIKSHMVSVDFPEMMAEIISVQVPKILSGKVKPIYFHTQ
Assay: AR reporter assay, LNCaP-AR-wt ANT (antagonist mode)
Type: cell-based
Details: for Emax: read-out: LNCaP-AR-wt ANT MAX % Inh
Description: LNCaP AR (cs) and LNCaP F876L luciferase cell lines were generated by transduction of each cell line (description of cell line generation Joseph J D, Lu N, Qian J, Sensintaffar J, Shao G, Brigham D, Moon M, Maneval E C, Chen I, Darimont B, Hager J H. A clinically relevant androgen receptor mutation confers resistance to second-generation antiandrogens enzalutamide and ARN-509. Cancer Discov 2013; 3:1020-1029) with an Androgen Response Element Firefly Luciferase lentiviral construct at an MOI (multiplicity of infection) of 50 following the manufacturer's instructions (Qiagen). A stable pooled-population cell line was generated using puromycin (Life Technologies) selection at 1:10,000 v/v. The protocol below was used for both cell lines and for testing of the compounds of Formula (I) of the present invention.
LNCaP cells were grown to about 80% confluence, media removed and cells rinsed in Hank's balanced salt solution prior to separation from the plate with 0.05% Trypsin EDTA. Cells were lifted and trypsin negated in complete CSS (charcoal stripped serum) culture media. CSS was maintained on cells for 24 h prior to assay, at which time 5,000 cells/[…] were seeded in Greiner 384 well White/White Tissue Culture Treated Plates and incubated for a further 1-2 hours at 37° C., 5% CO2, prior to addition of 10 μL of 4× Test Compounds (compounds described herein) or Assay Controls (all diluted in complete media containing 10% css). A further 10 μL of 4× R-1881 Agonist Challenge (antagonist assay) or Buffer (agonist assay) was then added (all diluted in complete media containing 10% css). Agonist challenge was at 400 pM for WT assay and 600 pM for F876L assay. Plates containing cells and compounds herein were incubated for a further 20-24 hours at 37° C., 5% CO2 before addition of 40 μL/well of Steady-Glo Luciferase Assay System Reagent (Promega#E2520). After 1 h, plates were read for luminescence on a BMG Pherastar.
Agonist challenge: R-1881 (Metribolone)—Agonist
Antagonist control (low control): 5-(5-(4-((1-Methylpiperidin-4-yl)oxy)phenyl)-8-oxo-6-thioxo-5,7-diazaspiro[3.4]octan-7-yl)-3-(trifluoromethyl)picolinonitrile (WO 2011/103202, EXAMPLE 19, Compound 129, CAS #1332390-06-3).
(1−(Sample RLU−Ave Low Control RLU[10 μM Antagonist Control])/(Ave High Control RLU [400 pM R-1881]−Ave Low Control RLU[10 μM Antagonist Control]))*100.
EC/IC50 calculations were achieved utilizing calculated RLU data and data fitting macros. Data were fit using least-squares methods to the following formula: […]
As used herein: • pIC50 is defined as −Log10(IC50 expressed in [Molar]). • pEC50 is defined as −Log10(EC50 expressed in [Molar]). • MAX % Inh is defined as the maximum % inhibition of R1881 control response observed for a compound over the tested concentration range. • MAX % Stim is defined as the maximum % stimulation (agonist response) observed for a compound over the tested concentration range. • LNCaP-AR-wt ANT refers to the reporter assay using LNCaP cells stably transfected with the Androgen Response Element Firefly Luciferase lentiviral construct and wild-type Androgen Receptor (AR-wt) in Antagonist mode. • LNCaP-AR-wt AG refers to the reporter assay using LNCaP cells stably transfected with the Androgen Response Element Firefly Luciferase lentiviral construct and wild-type Androgen Receptor (AR-wt) in Agonist mode. • LNCaP-AR-F876L ANT refers to the reporter assay using LNCaP cells stably transfected with the Androgen Response Element Firefly Luciferase lentiviral construct and F876L mutant Androgen Receptor (AR-F876L) in Antagonist mode. • LNCaP-AR-F876L AG refers to the reporter assay using LNCaP cells stably transfected with the Androgen Response Element Firefly Luciferase lentiviral construct and F876L mutant Androgen Receptor (AR-F876L) in Agonist mode.

[1] = antagonist mode, 400 pM R-1881 challenge, luciferase reporter, -Log10(IC50 in Molar), read-out: LNCaP-AR-wt ANT pIC50 (converted)

SMILES	IC50	Emax	IC50 [1]
CC1(C)C(=O)N(c2ccc(C#N)c(C(F)(F)F)c2)C(=S)N1c1ccc(OC2CCNCC2)cc1 [Compound 1, 4-(4,4-Dimethyl-5-oxo-3-(4-(piperidin-4-yloxy)phenyl)-2-thioxoimidazolidin-1-yl)-2-(trifluoromethyl)benzonitrile]	75.9 nM	106%	
CN1CCC(Oc2ccc(N3C(=S)N(c4ccc(C#N)c(C(F)(F)F)c4)C(=O)C3(C)C)cc2)CC1 [Compound 2, 4-(4,4-Dimethyl-3-(4-((1-methylpiperidin-4-yl)oxy)phenyl)-5-oxo-2-thioxoimidazolidin-1-yl)-2-(trifluoromethyl)benzonitrile hydrochloride]	97.7 nM	104%	
CC1(C)C(=O)N(c2ccc(C#N)c(C(F)(F)F)c2)C(=S)N1c1ccc(OC2CCNCC2)nc1 [Compound 3, 4-(4,4-Dimethyl-5-oxo-3-(6-(piperidin-4-yloxy)pyridin-3-yl)-2-thioxoimidazolidin-1-yl)-2-(trifluoromethyl)benzonitrile hydrochloride]	46.8 nM	103%	
CN1CCC(Oc2ccc(N3C(=S)N(c4ccc(C#N)c(C(F)(F)F)c4)C(=O)C3(C)C)cn2)CC1 [Compound 4, 4-(4,4-Dimethyl-3-(6-((1-methylpiperidin-4-yl)oxy)pyridin-3-yl)-5-oxo-2-thioxoimidazolidin-1-yl)-2-(trifluoromethyl)benzonitrile hydrochloride]	89.1 nM	102%	
CC1(C)C(=O)N(c2ccc(C#N)c(C(F)(F)F)c2)C(=S)N1c1cnc(OC2CCNCC2)nc1 [Compound 5, 4-(4,4-Dimethyl-5-oxo-3-(2-(piperidin-4-yloxy)pyrimidin-5-yl)-2-thioxoimidazolidin-1-yl)-2-(trifluoromethyl)benzonitrile]	170 nM	101%	
CN1CCC(Oc2ncc(N3C(=S)N(c4ccc(C#N)c(C(F)(F)F)c4)C(=O)C3(C)C)cn2)CC1 [Compound 6, 4-(4,4-Dimethyl-3-(2-((1-methylpiperidin-4-yl)oxy)pyrimidin-5-yl)-5-oxo-2-thioxoimidazolidin-1-yl)-2-(trifluoromethyl)benzonitrile]	91.2 nM	102%	
CC1(C)C(=O)N(c2ccc(C#N)c(Cl)c2)C(=S)N1c1ccc(OC2CCNCC2)cc1 [Compound 7, 2-Chloro-4-(4,4-dimethyl-5-oxo-3-(4-(piperidin-4-yloxy)phenyl)-2-thioxoimidazolidin-1-yl)benzonitrile hydrochloride]	61.7 nM	101%	
CN1CCC(Oc2ccc(N3C(=S)N(c4ccc(C#N)c(Cl)c4)C(=O)C3(C)C)cc2)CC1 [Compound 8, 2-Chloro-4-(4,4-dimethyl-3-(4-((1-methylpiperidin-4-yl)oxy)phenyl)-5-oxo-2-thioxoimidazolidin-1-yl)benzonitrile hydrochloride]	81.3 nM	103%	
CC1(C)C(=O)N(c2ccc(C#N)c(Cl)c2)C(=S)N1c1ccc(OC2CCNCC2)nc1 [Compound 9, 2-Chloro-4-(4,4-dimethyl-5-oxo-3-(6-(piperidin-4-yloxy)pyridin-3-yl)-2-thioxoimidazolidin-1-yl)benzonitrile hydrochloride]	57.5 nM	102%	
CN1CCC(Oc2ccc(N3C(=S)N(c4ccc(C#N)c(Cl)c4)C(=O)C3(C)C)cn2)CC1 [Compound 10, 2-Chloro-4-(4,4-dimethyl-3-(6-((1-methylpiperidin-4-yl)oxy)pyridin-3-yl)-5-oxo-2-thioxoimidazolidin-1-yl)benzonitrile hydrochloride]	63.1 nM	102%	
N#Cc1ccc(N2C(=O)C3(CCC3)N(c3ccc(OC4CCNCC4)cc3)C2=S)cc1C(F)(F)F [Compound 11, 4-(8-Oxo-5-(4-(piperidin-4-yloxy)phenyl)-6-thioxo-5,7-diazaspiro[3.4]octan-7-yl)-2-(trifluoromethyl)benzonitrile]	331 nM	105%	
CN1CCC(Oc2ccc(N3C(=S)N(c4ccc(C#N)c(C(F)(F)F)c4)C(=O)C34CCC4)cc2)CC1 [Compound 12, 4-(5-(4-((1-Methylpiperidin-4-yl)oxy)phenyl)-8-oxo-6-thioxo-5,7-diazaspiro[3.4]octan-7-yl)-2-(trifluoromethyl)benzonitrile]	324 nM	104%	
N#Cc1ccc(N2C(=O)C3(CCC3)N(c3ccc(OC4CCNCC4)nc3)C2=S)cc1C(F)(F)F [Compound 13, 4-(8-Oxo-5-(6-(piperidin-4-yloxy)pyridin-3-yl)-6-thioxo-5,7-diazaspiro[3.4]octan-7-yl)-2-(trifluoromethyl)benzonitrile hydrochloride]	63.1 nM	104%	
CN1CCC(Oc2ccc(N3C(=S)N(c4ccc(C#N)c(C(F)(F)F)c4)C(=O)C34CCC4)cn2)CC1 [Compound 14, 4-(5-(6-((1-Methylpiperidin-4-yl)oxy)pyridin-3-yl)-8-oxo-6-thioxo-5,7-diazaspiro[3.4]octan-7-yl)-2-(trifluoromethyl)benzonitrile]	89.1 nM	104%	
N#Cc1ccc(N2C(=O)C3(CCC3)N(c3cnc(OC4CCNCC4)nc3)C2=S)cc1C(F)(F)F [Compound 15, 4-(8-Oxo-5-(2-(piperidin-4-yloxy)pyrimidin-5-yl)-6-thioxo-5,7-diazaspiro[3.4]octan-7-yl)-2-(trifluoromethyl)benzonitrile]		102%	158 nM
CN1CCC(Oc2ncc(N3C(=S)N(c4ccc(C#N)c(C(F)(F)F)c4)C(=O)C34CCC4)cn2)CC1 [Compound 16, 4-(5-(2-((1-Methylpiperidin-4-yl)oxy)pyrimidin-5-yl)-8-oxo-6-thioxo-5,7-diazaspiro[3.4]octan-7-yl)-2-(trifluoromethyl)benzonitrile]		102%	209 nM
Cc1cc(N2C(=O)C3(CCC3)N(c3ccc(OC4CCN(C)CC4)cc3)C2=S)ccc1C#N [Compound 17, 2-Methyl-4-(5-(4-((1-methylpiperidin-4-yl)oxy)phenyl)-8-oxo-6-thioxo-5,7-diazaspiro[3.4]octan-7-yl)benzonitrile]		105%	170 nM
